{
  "source": "patent US20140212441A1",
  "about": "“PHARMACEUTICAL COMPOSITION FOR INFLAMMATORY DISEASES, ALLERGIC DISEASES AND AUTOIMMUNE DISEASES” (R-TECH UENO, LTD., priority 2011, published 2014)",
  "key": {"[1]": {"test_system": "LPS-stimulated mouse B cell proliferation", "assay": "B cell proliferation suppression test", "assay_type": "cell-based", "conditions": "LPS-stimulated Balb/c spleen B lymphocytic cells, 3H thymidine uptake", "experimental": "(§1) B lymphocytic cells (2×10^6/mL) isolated from the spleen of Balb/c mice (weighing 17±1 g) were cultured in a pH 7.4 AIM-V medium containing a given concentration of compound A and 10 mg/mL of a lipopolysaccharide (LPS) at 37° C. for 24 hours, and, after added with 120 nM ^3H thymidine, further cultured for 16 hours. The cells were collected by filter filtration, and the uptake of thymidine into the cells was measured using a liquid scintillation counter to evaluate the cell proliferation-suppressing effect and calculate IC50."}, "[2]": {"test_system": "Con A-stimulated mouse T cell proliferation", "assay": "T cell proliferation suppression test", "assay_type": "cell-based", "conditions": "Con A-stimulated Balb/c thymus T lymphocytic cells, 3H thymidine uptake", "experimental": "as §1, with “T lymphocytic” for “B lymphocytic”, “cells (5×10^6/mL)” for “cells (2×10^6/mL)”, “the thymus” for “the spleen”, “and […]” for “and 10”, “of concanavalin A (Con A)” for “of a lipopolysaccharide (LPS)”"}, "[3]": {"test_system": "transcription factor NFAT-1", "assay": "NF-AT gene transcription suppression test (lac Z reporter, Jurkat cells)", "assay_type": "cell-based", "conditions": "Homo sapiens, lac Z under NFAT-1 site, A23187 + PMA, β-galactosidase activity", "experimental": "(§2) Human T lymphocyte Jurkat cells transformed with a β-galactosidase gene (lac Z) having a DNA binding site for the transcription factor NFAT-1 in its transcriptional control region (2.3×10^6/mL) were cultured together with a given concentration of compound A in a pH 7.4 RPMI-1640 medium at 37° C. for 20 minutes, and, after added with […] A23187 (calcium ionophore) and 50 ng/mL PMA (Phorbol 12-myristate 13-acetate), further cultured for 4 hours. The activity of β-galactosidase was measured by conversion from FDG (fluorescein-di-beta-D-galactopyranoside) to fluorescein. Fluorescent emission was measured using a SpectroFluor Plus plate reader and IC50 was calculated."}, "[4]": {"test_system": "transcription factor NF-κB", "assay": "NF-κB gene transcription suppression test (lac Z reporter, Jurkat cells)", "assay_type": "cell-based", "conditions": "Homo sapiens, lac Z under NF-κB site, A23187 + PMA, β-galactosidase activity", "experimental": "as §2, with “NF-κB” for “NFAT-1”"}, "[5]": {"test_system": "PiCl-induced atopic dermatitis model mice (NC/NgaTndCrlj, male)", "assay": "Atopic dermatitis mouse model: dermatitis score", "assay_type": "in vivo", "design": "key to Dermatitis score (average ± standard error): sum of grades of five findings, each 0 (subclinical) to 3 (severe)", "experimental": "(§3) An atopic dermatitis mouse model (NC/NgaTndCrlj, male) induced by picryl chloride (PiCl) was used to evaluate effects against dermal inflammation and hair conditions on the skin suffering from dermal inflammation.\n(§4) PiCl-induced atopic dermatitis model mice were prepared by applying a PiCl solution to the sheared abdomen and footpad for sensitization and applying the PiCl solution to the sheared back and the right and left ears (both the inside and outside thereof) once a week for 5 weeks starting from the 5th day after sensitization for repeated induction. In each group, administration was performed once a day for 28 days starting from the 18th day after PiCl sensitization. Compound A and 0.1% tacrolimus ointment were openly applied to a ca. 3 cm×ca. 5 cm region of the neck and back of the model animals. The animals of the 5th group (the group of combined administration of prednisolone and 0.6 w/v % compound A) were orally administered 1 mg/kg of prednisolone and then transdermally administered 0.6 w/v % compound A. The animals of the 6th group (the group of combined administration of 0.1% tacrolimus ointment and 0.6 w/v % compound A) were administered 0.1% tacrolimus ointment at or beyond 3.5 hours after administration of 0.6 w/v % compound A.\n(§5) Each evaluation used a dermatitis score and a hair restoration score. The scores were obtained by grading dermatitis and hair growth/hair restoration conditions at Day 1, 8, 15, 22, and 29 (the next day after final administration) of administration, according to the following criteria.\n<Dermatitis Findings> The dermatitis score of each individual was expressed as the sum of grades (0: subclinical to 3: severe) of the following dermatitis findings (1) to (5).\n(2) Flare/bleeding: Flare and bleeding symptoms in the induction site were observed.\n(3) Edema: The edema of the auricle as the induction site was qualitatively observed.\nAn effect against atopic dermal inflammation was evaluated using the dermatitis score at Day 8 of administration."}, "[6]": {"test_system": "PiCl-induced atopic dermatitis model mice (NC/NgaTndCrlj, male)", "assay": "Atopic dermatitis mouse model: hair restoration score", "assay_type": "in vivo", "design": "key to Hair restoration score (average ± standard error): 0 = no hair growth, 3 = hair restoration in 75-100% of site", "experimental": "as §3, §4, §5\n<Hair Growth/Hair Restoration Condition> A region received transdermal administration (a ca. 3 cm×ca. 5 cm region of the neck and back) of each individual was observed.\n0: No hair growth or hair restoration is noted in the observation site.\n1: Hair growth and hair restoration are noted in 0<25% of the observation site.\n2: Hair growth and hair restoration are noted in 25≦75% of the observation site.\n3: Hair growth and hair restoration are noted in 75≦100% of the observation site.\nHair condition in the skin suffering from dermal inflammation was evaluated using hair restoration scores at Day 15, 22 and 29 of administration."}, "[7]": {"conditions": "0.08 w/v % Compound A transdermal once a day, Day 15"}, "[8]": {"conditions": "0.08 w/v % Compound A transdermal once a day, Day 22"}, "[9]": {"conditions": "0.08 w/v % Compound A transdermal once a day, Day 29"}, "[10]": {"conditions": "0.3 w/v % Compound A transdermal once a day, Day 1"}, "[11]": {"conditions": "0.3 w/v % Compound A transdermal once a day, Day 15"}, "[12]": {"conditions": "0.3 w/v % Compound A transdermal once a day, Day 22"}, "[13]": {"conditions": "0.3 w/v % Compound A transdermal once a day, Day 29"}, "[14]": {"conditions": "0.6 w/v % Compound A transdermal once a day, Day 1"}, "[15]": {"conditions": "0.6 w/v % Compound A transdermal once a day, Day 15"}, "[16]": {"conditions": "0.6 w/v % Compound A transdermal once a day, Day 22"}},
  "data": [
    {"compound": "CCCCCCCC1(CC[C@@H]2[C@@H](C/C=C\\CCCC(=O)OC(C)C)[C@@H](O)C[C@H]2O)OCCO1", "note": "[Compound A, isopropyl (Z)-7-[(1R,2R,3R,5S)-2-(3,3-ethylenedioxydecyl)-3,5-dihydroxycyclopentyl]hept-5-enoate]", "values": [
      {"measurement": "IC50", "setting": "[1]", "result": 9.23, "unit": "µM"},
      {"measurement": "IC50", "setting": "[2]", "result": 6.3, "unit": "µM"},
      {"measurement": "IC50", "setting": "[3]", "result": 1.32, "unit": "µM"},
      {"measurement": "IC50", "setting": "[4]", "result": 1.33, "unit": "µM"},
      {"measurement": "Dermatitis score (average ± standard error)", "setting": "[5]; 0.08 w/v % Compound A transdermal once a day, Day 1 of administration", "result": "3.8 ± 0.4"},
      {"measurement": "Dermatitis score (average ± standard error)", "setting": "[5]; 0.08 w/v % Compound A transdermal once a day, Day 8", "result": "3.7 ± 0.6"},
      {"measurement": "Dermatitis score (average ± standard error)", "setting": "[5]; [7]", "result": "6.2 ± 0.7"},
      {"measurement": "Dermatitis score (average ± standard error)", "setting": "[5]; [8]", "result": "8.0 ± 0.5"},
      {"measurement": "Dermatitis score (average ± standard error)", "setting": "[5]; [9]", "result": "9.0 ± 0.7"},
      {"measurement": "Dermatitis score (average ± standard error)", "setting": "[5]; [10]", "result": "3.3 ± 0.5"},
      {"measurement": "Dermatitis score (average ± standard error)", "setting": "[5]; 0.3 w/v % Compound A transdermal once a day, Day 8", "result": "3.5 ± 0.4"},
      {"measurement": "Dermatitis score (average ± standard error)", "setting": "[5]; [11]", "result": "5.5 ± 0.5"},
      {"measurement": "Dermatitis score (average ± standard error)", "setting": "[5]; [12]", "result": "7.5 ± 0.7"},
      {"measurement": "Dermatitis score (average ± standard error)", "setting": "[5]; [13]", "result": "8.1 ± 0.5"},
      {"measurement": "Dermatitis score (average ± standard error)", "setting": "[5]; [14]", "result": "3.6 ± 0.3"},
      {"measurement": "Dermatitis score (average ± standard error)", "setting": "[5]; [15]", "result": "6.0 ± 0.7"},
      {"measurement": "Dermatitis score (average ± standard error)", "setting": "[5]; [16]", "result": "8.3 ± 0.4"},
      {"measurement": "Dermatitis score (average ± standard error)", "setting": "[5]; 0.6 w/v % Compound A transdermal once a day, Day 29", "result": "9.3 ± 0.6"},
      {"measurement": "progression of early dermatitis", "setting": "[5]; compared to the group administered with the base for compound A, Day 8 dermatitis score", "result": "tendency to be suppressed"},
      {"measurement": "Hair restoration score (average ± standard error)", "setting": "[6]; 0.08 w/v % Compound A transdermal once a day, Day 1", "result": "0.0 ± 0.0"},
      {"measurement": "Hair restoration score (average ± standard error)", "setting": "[6]; [7]", "result": "2.2 ± 0.1"},
      {"measurement": "Hair restoration score (average ± standard error)", "setting": "[6]; [8]", "result": "1.4 ± 0.2"},
      {"measurement": "Hair restoration score (average ± standard error)", "setting": "[6]; [9]", "result": "1.5 ± 0.2"},
      {"measurement": "Hair restoration score (average ± standard error)", "setting": "[6]; [10]", "result": "0.0 ± 0.0"},
      {"measurement": "Hair restoration score (average ± standard error)", "setting": "[6]; [11]", "result": "2.1 ± 0.2"},
      {"measurement": "Hair restoration score (average ± standard error)", "setting": "[6]; [12]", "result": "1.6 ± 0.2"},
      {"measurement": "Hair restoration score (average ± standard error)", "setting": "[6]; [13]", "result": "1.9 ± 0.2"},
      {"measurement": "Hair restoration score (average ± standard error)", "setting": "[6]; [14]", "result": "0.0 ± 0.0"},
      {"measurement": "Hair restoration score (average ± standard error)", "setting": "[6]; [15]", "result": "1.8 ± 0.2"},
      {"measurement": "Hair restoration score (average ± standard error)", "setting": "[6]; [16]", "result": "1.5 ± 0.2"},
      {"measurement": "Hair restoration score (average ± standard error)", "setting": "[6]; 0.6 w/v % Compound A transdermal once a day, Day 29, P < 0.05 vs Day 22", "result": "2.0 ± 0.0"},
      {"measurement": "change in hair restoration score (improvement in the hair loss)", "setting": "[6]; Day 29 of administration compared to Day 22", "result": "observed in a dose-dependent manner"}
    ]}
  ]
}
